Here are results for 46 sequences from patent US20040047880A1, “Component for vaccine” (priority 2000, published 2004).

Holding throughout (assay type): binding, mouse
For test [1], the system named is mAbs H44/24, H44/58, H44/70, H44/78, 4BE12C10. The experiment in a line: ELISA test for the peptide-on-phage mAb interaction. As to conditions: peptide-on-phage coated at 5×10^11 particules/ml; positives tested a second time. The protocol: To assess the binding of the mAbs to the numerous peptides-on-phage, all clones have been produced independently using the following protocol.
A preculture of E. coli DH11S infected with the phage was grown overnight. A sample of this preculture was used to inoculate a new 50 ml culture with a starting OD600nm of 0.050. This culture was grown up to an OD600nm of 0.20 to 0.25 with vigorous shaking at 37° C. The culture was then slowed down for 15 minutes in order to allow the regeneration of pili. M13K07 helper phage was added at an MOI of 20, and superinfection was allowed for 15 more minutes at 37° C. with slow agitation. IPTG (1 mM final concentration) was then added and the culture was grown for 5 hours with vigorous agitation.
A colony of K91kan containing the clone of interest (on a LB Tet plate) was added to 50 ml of LB supplemented with 20 μg/ml tetracycline and grown overnight at 37° C. with strong agitation.
Culture was centrifuged for 15 minutes at 4000RPM; 0.15 volume of PEG-NaCl solution was added to the supernatant for precipitating the phage and kept overnight at 4° C. Phage were collected by centrifugation, 45 minutes at 4000RPM. After being resuspended in TBS, phage were heated 15 minutes at 65° C. to kill remaining bacteria and to denature soluble proteins present in the sample. The solution was then centrifuged and the pellet was discarded. Phage in the supernatant were then precipitated again as indicated above. Phage were finally resuspended in 200 μl of TBS. Concentration of phage particules was determined by measuring the ΔOD at 269 nm-320 nm.
(§1) Phages were coated at 5×10^11 particules/ml on MaxiSorp multiwell plates. Coating was performed overnight at 4° C. with 100 μl/well. Plates were saturated with 5% (v/v) skimmed milk in TBS for 2 hours at 37° C. and washed 5 times with TBS-Tween20 0.05% (v/v). The mAbs were then incubated in the coated wells for 1 hour at 37° C., washed 5 times, and GAM-HRP conjugate (1500-fold dilution, Dako, Denmark) was added for 1 hour at 37° C. to detect the binding of the mAb to the phages. After 5 washings, the peroxidase activity was monitored by addition of the K-Blue® substrate (Neogen, Lexington, USA) at room temperature for 20 minutes. Reaction was stopped by addition of 25 μl of 2N H2SO4. Reading was performed at 450-630 nm. Each phage was coated in triplicate for testing with each mAb.

Test [2] has as its system mAb H44/58. The experiment in a line: SPOT peptide immunoblot, mAb H44/58. As to conditions: Membrane 1 (linear peptide). An excerpt: Another experiment for determining the best peptide candidates for immunisation trials is whether chemically synthesized peptides are recognized by at least one anti-MenB LOS mAb (and preferably not by irrelevant mAbs). This can be assessed on SPOT synthesized peptides (peptides synthesized directly on a cellulose membrane). This membrane can be tested with different mAbs by repetitive immunoblottings and chemiluminescent detection. Peptides may be synthesised with 3 residues originating from the pVIII protein sequence on each end of the peptide. Indeed, the primary structure of the peptides expressed in fusion with pVIII on the surface of the bacteriophage is as follows (x for any residue in the library):
For example linear peptides comprising peptide No. 61 from Table 2 (GEFPRPHFGAPPDPA) and peptide No. 83 (GEFAERSLWYYPDPA) were synthesised on one membrane, and cyclised peptides comprising peptide No. 50 from Table 2 (GEFCSSYSYVHDSCGDP), peptide 14 (GEFCSHAPPYDRVCGDP) and peptide 25 (GEFCRAPPYDTIMCGDP) were synthesised on another.
The protocol used to probe these membranes with mAbs was the one provided by Genosys, with some modifications, especially for the regeneration of membranes with cyclised peptides. […]

Test [3] has as its system mAb H44/58. The experiment in a line: Phage-ELISA with mAb H44/58. The following applies: peptide-on-phage. The protocol:
as §1

No end group written: not given here.

AERSLWYYP [Peptide 83]: in test [1], the “Phage ELISA: positive with at least one mAb” value (shortened to “Phage ELISA: positive”) is listed as “positive”. Besides, the “SPOT recognition by mAb 58 (H44/58)” value in the test on mAb H44/58 [2] is listed as “recognized”.
Take “AITGVRARW (LOS peptide mimotope sequence) [Peptide 143]”: the “Phage ELISA: positive” value in test [1] is “positive”.
Regarding “ARWYPISQT (LOS peptide mimotope sequence) [Peptide 124]”, in test [1], the “Phage ELISA: positive” value is “positive”.
On to “CANSRPGGYLC (LOS peptide mimotope sequence) [Peptide 30]”, for which the “Phage ELISA: positive” value in test [1] is recorded as “positive”.
On to “CAPPGIAVRTC (not fully specified (bridges); cysteine pairing not given here) [Peptide 115]”, for which the “Phage ELISA: positive” value in test [1] was “positive”.
In the case of “CAPYSIFIGEC (not fully specified (bridges); cysteine pairing not given here) [Peptide 17]”, in test [1], the “Phage ELISA: positive” value is listed as “positive”.
Regarding “CFARPFQGTWC (LOS peptide mimotope sequence) [Peptide 22]”, the “Phage ELISA: positive” value in test [1] is “positive”.
For the sequence “CFGLIAFHPDC (LOS peptide mimotope sequence) [Peptide 27]”, the “Phage ELISA: positive” value in test [1] is on record as “positive”.
In the case of “CHSVQPATRAC (LOS peptide mimotope sequence) [Peptide 131]”, the “Phage ELISA: positive” value in test [1] is given as “positive”.
In the case of “CIDAGSHGWLC (LOS peptide mimotope sequence) [Peptide 133]”, in test [1], the “Phage ELISA: positive” value is “positive”.
On to “CISEYAKGTTC (LOS peptide mimotope sequence) [Peptide 13]”, for which the “Phage ELISA: positive” value in test [1] is “positive”.
Regarding “CLAASADTAAC (LOS peptide mimotope sequence) [Peptide 139]”, the “Phage ELISA: positive” value in test [1] is listed as “positive”.
The same measure, in the same setting: next, “CLWRPIDPFLC (LOS peptide mimotope sequence) [Peptide 82]”: “positive”; “CPKAPFSPFKC (LOS peptide mimotope sequence) [Peptide 132]”: “positive”.
As to “CPPPWSTHDC (LOS peptide mimotope sequence) [Peptide 141]”, in test [1], the “Phage ELISA: positive” value is “positive”.
Still for that read-out and setting: to “CPYTSWAREGC (LOS peptide mimotope sequence) [Peptide 140]” belongs “positive”.
Turning to “CQPIGPPYDRC (LOS peptide mimotope sequence) [Peptide 28]”, the “Phage ELISA: positive” value in test [1] is recorded as “positive”.
As for “CRFTYDPPFMC (LOS peptide mimotope sequence) [Peptide 51]”, the “Phage ELISA: positive” value in test [1] is “positive”.
“CRGLQGHIAYC (LOS peptide mimotope sequence) [Peptide 87]”: the “Phage ELISA: positive” value in test [1] is “positive”.
Turning to “CRPAFDPPYHC (LOS peptide mimotope sequence) [Peptide 54]”, the “Phage ELISA: positive” value in test [1] is on record as “positive”.
Turning to “CSEPWSTSNC (LOS peptide mimotope sequence) [Peptide 142]”, the “Phage ELISA: positive” value in test [1] is on record as “positive”.
CSHAPPYDRVC [Peptide 14]: the “Phage ELISA: positive” value in test [1] is “positive”. For the same sequence, the “Phage-ELISA result with mAb H44/58” value with mAb H44/58 [3] is on record as “positive”.
Take “CSSLYYHGTAC (LOS peptide mimotope sequence) [Peptide 39]”: the “Phage ELISA: positive” value in test [1] is “positive”.
As to CSSYSYVHDSC [Peptide 50], the “Phage ELISA: positive” value in test [1] was “positive”.
As to CTANVYFGTYC [Peptide 29], the “Phage ELISA: positive” value in test [1] is reported as “positive”.
Same read-out and setting: to “CTHYSFYGDIC (LOS peptide mimotope sequence) [Peptide 66]” belongs “positive”; to “CTPLPDGGILC (LOS peptide mimotope sequence) [Peptide 103]”, “positive”.
In the case of “CYPQLSHANPC (LOS peptide mimotope sequence) [Peptide 105]”, in test [1], the “Phage ELISA: positive” value is “positive”.
As to “DSAPAVKSS (LOS peptide mimotope sequence) [Peptide 85]”, the “Phage ELISA: positive” value in test [1] is “positive”.
Consider “EKKHFNYGT (LOS peptide mimotope sequence) [Peptide 144]”, for which the “Phage ELISA: positive” value in test [1] is listed as “positive”.
Take “EKKRFESNT (LOS peptide mimotope sequence) [Peptide 145]”: the “Phage ELISA: positive” value in test [1] is given as “positive”.
For the sequence “EQGYCTVNIEQCAKYR (LOS peptide mimotope sequence) [Peptide 146]”, the “Phage ELISA: positive” value in test [1] is recorded as “positive”.
“GPWHGPSSS (LOS peptide mimotope sequence) [Peptide 93]”: the “Phage ELISA: positive” value in test [1] was “positive”.
As to “HGRTLWYTP (LOS peptide mimotope sequence) [Peptide 55]”, in test [1], the “Phage ELISA: positive” value is listed as “positive”.
On the same count and under the same terms, to “LKWGDGSSA (LOS peptide mimotope sequence) [Peptide 104]” belongs “positive”; to “NSPTSCKWLCNEKF (LOS peptide mimotope sequence) [Peptide 148]”, “positive”; to “PGWYDAHPT (LOS peptide mimotope sequence) [Peptide 86]”, “positive”.
Consider “PLWYDPAPP (LOS peptide mimotope sequence) [Peptide 47]”, for which, in test [1], the “Phage ELISA: positive” value is “positive”.
On the same count and under the same terms, to PRPHFGAPP [Peptide 61] belongs “positive”; to “RGSEGSFAR (LOS peptide mimotope sequence) [Peptide 45]”, “positive”; to “SNWYENTPT (LOS peptide mimotope sequence) [Peptide 58]”, “positive”.
The same measure, in the same setting: next, “SPADCDYTTLCAKPT (LOS peptide mimotope sequence) [Peptide 147]”: “positive”.
On the same count and under the same terms, next, “SQWRSAAPT (LOS peptide mimotope sequence) [Peptide 53]”: “positive”; “WYIAPRKTL (LOS peptide mimotope sequence) [Peptide 63]”: “positive”; “WYSAPENAL (LOS peptide mimotope sequence) [Peptide 88]”: “positive”.
For the sequence “WYTTPTRPV (LOS peptide mimotope sequence) [Peptide 75]”, the “Phage ELISA: positive” value in test [1] was “positive”.
